Reference: patent US20180310552A1, “Composition comprising a safener, a fungicide and metalaxyl” (priority 2015, published 2018)

How the values were obtained:
Fusarium culmorum [1] = assay: Fusarium culmorum (wheat)/seed treatment, greenhouse, 7 days at 20° C.; format: in vivo; settings: seed treatment
Source text: (§1) According to another aspect of the present invention, in the composition according to the invention, the compound ratio A/B, A/C or A/B/C may be advantageously chosen so as to produce a synergistic effect. A synergistic effect of fungicides is always present when the fungicidal activity of the active compound combinations exceeds the total of the activities of the active compounds when applied individually. The expected activity for a given combination of two or three active compounds can be calculated as follows (cf. Colby, S. R., “Calculating Synergistic and Antagonistic Responses of Herbicide Combinations”, Weeds 1967, 15, 20-22).
(§2) wherein • X denotes the efficacy when using active compound A at an application rate of m ppm (or g/ha), • Y denotes the efficacy when using active compound B (or C) at an application rate of n ppm (or g/ha), • Z denotes the efficacy when using active compound C at an application rate of r ppm (or g/ha), • E1 denotes the efficacy when using active compounds A and B at application rates of m and n ppm (or g/ha), and • E2 denotes the efficacy when using active compounds A and B and C at application rates of m and n and r ppm (or g/ha),
(§3) Here, the efficacy is determined in %. 0% means an efficacy which corresponds to that of the control, whereas an efficacy of 100% means that no infection is observed.
(§4) If the actual fungicidal action exceeds the calculated value, the action of the combination is superadditive, i.e. a synergistic effect is present. In this case, the actually observed efficacy must exceed the value calculated using the above formula for the expected efficacy (E1 or E2).
(§5) The test is performed under greenhouse conditions.
(§6) Active compounds solved in N-methyl-2-pyrrolidon, or combinations thereof were diluted with water to the desired dosages. Wheat seeds were treated with these preparations and sown in 7×7 cm pots filled with 1:1 mix of steamed field soil and sand, mixed with a wheat grain culture of Fusarium culmorum.
Pots were incubated in the greenhouse for 7 days at 20° C. […]

Fusarium culmorum [2] = assay: Fusarium culmorum (wheat)/seed treatment, greenhouse, 7 days at 15° C. (Example 5); format: in vivo; settings: seed treatment
Source text: as §1, §2, §3, §4, §5
as §6, with “Commercially available disease control agents, active” for “Active”, “6*6” for “7×7”, “containing 4 cm of a” for “filled with”
Pots were incubated in the greenhouse for 7 days at 15° C.
Assessment consisted of counting of emerged seedlings and diseased plants. 0% means an efficacy which corresponds to that of the untreated control (infection rate was 73%), while an efficacy of 100% means that all seedlings have emerged and are healthy.

SMILES: COCC(=O)N(c1c(C)cccc1C)C(C)C(=O)OC (racemic) [Metalaxyl, methylN-(2,6-dimethylphenyl)-N-(methoxyacetyl)-DL-alaninate]
- Efficacy in % (Fusarium culmorum [1]; 6 g a.i./dt): 0%
- Efficacy in % (Fusarium culmorum [2]; 2 g a.i./kg seed): 18%

SMILES: OC(Cc1ccccc1Cl)(Cn1[nH]cnc1=S)C1(Cl)CC1 (stereo not shown) [Prothioconazole, 2-[2-(1-chlorocyclopropyl)-3-(2-chlorophenyl)-2-hydroxypropyl]-1,2-dihydro-3H-1,2,4-triazole-3-thione]
- Efficacy in % (Fusarium culmorum [1]; 16 g a.i./dt): 45%
- Efficacy in % (Fusarium culmorum [2]; 15 g a.i./kg seed): 64%

SMILES: CCOC(=O)C1=NN(c2ccc(Cl)cc2Cl)C(C)(C(=O)OCC)C1 (racemic) [Mefenpyr-diethyl, diethyl (RS)-1-(2,4-dichlorophenyl)-5-methyl-2-pyrazoline-3,5-dicarboxylate]
- Efficacy in % (Fusarium culmorum [1]; 60 g a.i./dt): 9%
- Efficacy in % (Fusarium culmorum [2]; 25 g a.i./kg seed): 9%
- Efficacy in % (Fusarium culmorum [2]; 50 g a.i./kg seed): 0%
